According to patent US20100303790A1, “USE OF BILIVERDIN REDUCTASE (BVR) AND BVR PEPTIDE FRAGMENTS TO TREAT CORONARY DISORDERS” (UNIVERSITY OF ROCHESTER, priority 2009, published 2010):

What was measured:
[1] = tested on: rat neonatal cardiomyocytes; assay: BVR, HO-2 and HO-1 protein levels in rat neonatal cardiomyocytes (western blot); assay type: cell-based
Method: Neonatal Rat Cardiomyocytes: Primary cultures of neonatal rat cardiomyocytes were prepared as described previously (Ding et al., “Functional Role of Phosphodiesterase 3 in Cardiomyocyte Apoptosis: Implication in Heart Failure,” Circulation 111:2469-2476 (2005) which is hereby incorporated by reference in its entirety). Briefly, fragmented ventricular tissue from 1-2 day old Sprague-Dawley rats was subjected to multiple rounds of enzymatic digestion with collagenase II (Worthington, Lakewood, N.J.). The cells were then collected by low speed centrifugation at 4° C. Non-myocytes were removed by two rounds of pre-plating the cells on culture dishes. The enriched cardiomyocytes were cultured in DMEM with 10% FBS and 10% horse serum. The day after cell adhesion, 10 μM cytosine 1-β-D-arabinofuranoside (Sigma, St. Louis, Mo.) was added to inhibit the growth of contaminating non-myocytes.
Plasmids and Constructs: Adenovirus for expression of an endogenous PKA inhibitor (PKA251 bp) was prepared as described previously (Ding et al., “Functional Role of Phosphodiesterase 3 in Cardiomyocyte Apoptosis: Implication in Heart Failure,” Circulation 111:2469-2476 (2005), which is hereby incorporated by reference in its entirety). Rat BVR and HO-2 siRNA were designed based on the human sequences (Miralem et al., “Small Interference RNA-Mediated Gene Silencing of Human Biliverdin Reductase, but not that of Heme Oxygenase-1, Attenuates Arsenite-Mediated Induction of the Oxygenase and Increases Apoptosis in 293A Kidney Cells,” J Biol Chem 280:17084-17092 (2005), which is hereby incorporated by reference in its entirety). The BVR targeting site is at nucleotides 94-114, and the HO-2 targeting site is at nucleotides 73-93, downstream of the start codon in each case. Oligonucleotides containing the sequence of a 21 nucleotide small interference RNA were synthesized as follows: BVR siRNA, 5′-GATCCCC ([…]) TTCAAGAG ([…]) TTTTTGGAAA (SEQ ID NO:61) and 5′-AGCTTTTCCAAAAA ([…]) TCTCTTGAA ([…]) GGG (SEQ ID NO:62; HO-2 siRNA, 5′-GATCCCC ([…]) TTCAAGAGA ([…]) TTTTTGGAAA (SEQ ID NO:63) and 3′-AGCTTTTCCAAAAA ([…]) TCTCTTGAA ([…]) GGG (SEQ ID NO:64). Complementary oligonucleotides were annealed, then ligated into pSuper-Retro vector (OligoEngine Co. Seattle, Wash.). E. coli clones containing the desired constructs were identified by restriction analysis and verified by DNA sequencing. The retroviral DNA vectors for generating BVR si-rRNA and […] were transfected into the HEK293A packaging cell line, and the supernatant containing the expressed si-rBVR or si-rHO-2 retrovirus was then titrated in NIH3T3 cells. Retrovirus expressing siRNA was used to infect cells at a multiplicity of infection of 4 plaque-forming units/cell. The plasmid pcDNA-hBVR has previously been described (Lerner-Marmarosh et al., “Human Biliverdin Reductase: A Member of the Insulin Receptor Substrate Family with Serine/Threonine/Tyrosine Kinase Activity,” Proc Natl Acad Sci US A 102:7109-7114 (2005), which is hereby incorporated by reference in its entirety); pcDNA-hHO2 was constructed by cloning the HO-2 open reading frame into pcDNA3. […]

[2] = tested on: rat neonatal cardiomyocytes; conditions: literature (Hu et al. 2006); cited from earlier work
rat heart = assay: BVR and HO-2 expression in rat heart after continuous isoproterenol infusion; assay type: in vivo; conditions: 400 μg isoproterenol/kg/h, four days
Method: Western Blot Analysis: Cell lysates were prepared by homogenization in RIPA buffer (40 mM Tris-HCl, pH 7.5, 1 mM EDTA, 1 mM DTT, 0.1 mM Na3VO4, 10 μg/ml aprotinin, 5 μg/ml pepstatin, 20 μg/ml leupeptin, 1 mM bezamidine followed by centrifugation at 800×g for 10 minutes at 4° C. (Ding et al., “Functional Role of Phosphodiesterase 3 in Cardiomyocyte Apoptosis: Implication in Heart Failure,” Circulation 111:2469-2476 (2005), which is hereby incorporated by reference in its entirety). Supernatant proteins were resolved by SDS-PAGE and transferred to nitrocellulose. Western blots were examined using antibodies against β-actin (Cell Signaling), BVR (Huang et al., “Detection of 10 Variants of Biliverdin Reductase in Rat Liver by Two-Dimensional Gel Electrophoresis,” J Biol Chem 264:7844-7849 (1989), which is hereby incorporated by reference in its entirety), HO-1, HO-2 (Panahian et al., “Site of Injury-Directed Induction of Heme Oxygenase-1 and -2 in Experimental Spinal Cord Injury Differential Functions in Neuronal Defense Mechanisms?” J Neurochem 76:539-554 (2001), which is hereby incorporated by reference in its entirety), and cleaved caspase-3 (Cell Signaling, Beverly Mass.). The secondary antibody was horseradish peroxidase-conjugated goat anti-rabbit IgG (1:2,000, Bio-Rad).
Quantitative RT-PCR: Total RNA was isolated using Trizol reagent (Invitrogen). The first-strand cDNA synthesis and quantitative polymerase chain reaction (RT-PCR) were performed as previously described (Tudor et al., “Biliverdin Reductase is a Transporter of Haem into the Nucleus and is Essential for Regulation of HO-1 Gene Expression by Haematin,” Biochem J 413:405-416 (2008), which is hereby incorporated by reference in its entirety). The following primers were used for PCR analysis: […]
Implanting ISO Miniosmotic Pump: Miniosmotic pumps (Alzet model 2001, Durect Co., Cupertino, Calif.) were filled under sterile conditions with ISO dissolved in 0.001 N HCl, primed in sterile saline at 37° C. overnight, and aseptically implanted subcutaneously under halothane anesthesia. The ISO concentration was calculated to allow the pumps to deliver the drug at an infusion rate of 400 μg ISO base/kg/h, essentially as described by (Hayes et al., “Effects of Prolonged Isoproterenol Infusion on Cardiac and Vascular Responses to Adrenoceptor Agonists,”J Pharmacol Exp Ther 237:757-763 (1986), which is hereby incorporated by reference in its entirety).
It might be argued that the above data arose as an artifact of cell culture. To test whether those findings also apply in vivo, four rats were continuously infused with isoproterenol for four days, after which cardiac tissue was harvested for examination of BVR and HO-2 expression. […] Also, as expected from in vitro observations, there was no change in the level of HO-2 mRNA during infusion with isoproterenol (FIG. 3B), whereas the BVR mRNA was increased.

[3] = 10 μM isoproterenol, western blot

CC(C)NCC(O)c1ccc(O)c(O)c1 (centres unmarked) [isoproterenol]
time for which increased levels of both proteins (BVR, HO-2) remained stable ([1]; 10 μM isoproterenol): up to 96 hours | time by which BVR protein expression was elevated [1, 3]: ≤ 8 h | time by which HO-2 protein level began to increase [1, 3]: ≤ 12 h | time by which HO-2 protein level reached a plateau [1, 3]: ≤ 24 h | HO-1 protein expression ([1]; isoproterenol treatment up to 96 hours): not detected | cardiomyocyte apoptosis [2]: increases cardiomyocyte apoptosis | BVR mRNA in heart (rat heart): increased | level of HO-1 mRNA in the tissue (rat heart): no apparent change | level of HO-2 mRNA in heart (rat heart): no change | BVR protein expression in heart (rat heart; vs sham): up-regulated | HO-2 protein expression in heart (rat heart; vs sham): up-regulated
